# Key:
# tumors = assay: Solid stress after a panel of ARBs; format: in vivo; details: 40 mg/kg losartan, 3.2 mg/kg candesartan, 32 mg/kg valsartan
# Experimental: Solid stress levels in tumors after angiotensin inhibition using the ARBs losartan, candesartan, and valsartan are shown. Doses were chosen based on their relative doses in patients for hypertension indications (40 mg/kg losartan, 3.2 mg/kg candesartan, 32 mg/kg valsartan). […] Animal numbers n=6-7. Statistical tests were corrected for multiple comparisons using the Holm-Bonferroni method.
# The mechanism responsible for the increase in tumor vessel perfusion by losartan was investigated. Desmoplasia, high stromal cell and matrix density, is a major contributor to the solid stress accumulation that compresses vessels (Stylianopoulos T, et al., Growth-induced mechanical stress in murine and human tumors: causes, consequences and remedies. under review. 2012). Since angiotensin inhibitors reduce matrix production in tumors (Diop-Frimpong B, et al., Proc Natl Acad Sci USA. 2011; 108(7): 2909-14), it was hypothesized that they decompress vessels and increase perfusion by decreasing solid stress. Collagen levels were used as a metric of matrix production as described in Diop-Frimpong et al., Proc Nall Acad Sci USA. […] Moreover, losartan decreased collagen I concentration, measured based on staining intensity, in E0771 and AK4.4 tumors (FIGS. 24B-24C). Of note, dense collagen seemed to colocalize with low-perfusion areas (FIG. 24C). Next, solid stress in these tumors was measured using recently established technique described in Stylianopoulos T, et al., Growth-induced mechanical stress in murine and human tumors: causes, consequences and remedies. under review. 2012. […]
# Solid stress: Solid stress was measured using the tumor opening technique as described previously (Stylianopoulos T, et al., Growth-induced mechanical stress in murine and human tumors: causes, consequences and remedies. under review. 2012). […] Subsequently, each tumor was excised, washed with Hanks' Balanced Salt Solution (HBSS) and its three dimensions were measured. […] Afterwards, the opening resulting from the cut was measured at the middle of the cut at the surface of the tumor. […]
# E0771 breast tumors [1] = assay: Breast tumor growth and survival studies; format: in vivo, mice
# Experimental: (§1) Breast tumor growth and survival studies: Mice bearing orthotopic E0771 or 4T1 breast tumors were split into treatment groups, time-matched for time after implantation and size-matched for tumor volume at this time (110-111 mm^3 in E0771, in 4T1). […] The primary tumors were then measured every 2 days, beginning on day 0, using calipers. Tumor growth was quantified using the time for each to reach double its initial volume Animal survival was quantified based on time of death after initiation of treatment or time to reach excessive tumor burden (>1000 mm^3).
# 4T1 breast tumors = assay: Breast tumor growth and survival studies; format: in vivo, mice
# Description: In FIG. 35B, the quantification of tumor growth rates, based on the time to reach double the initial volume, is shown.
# In FIG. 35C, the animal survival following the initiation of treatment is shown. […] Statistical tests were corrected for multiple comparisons using the Holm-Bonferroni method.
# as §1
# E0771 breast tumors [2] = assay: Tumor matrix level histology (collagen I); parameters: species or system SCID mouse; details: mouse, in vivo
# Experimental: Collagen levels were used as a metric of matrix production as described in Diop-Frimpong et al., Proc Nall Acad Sci USA. […] Next, solid stress in these tumors was measured using recently established technique described in Stylianopoulos T, et al., Growth-induced mechanical stress in murine and human tumors: causes, consequences and remedies. under review.
# Vessel perfusion, matrix level, and hypoxia histology: For breast tumors, mice bearing orthotopic E0771 were split into treatment groups, time-matched for time after implantation and size-matched for tumor volume at this time (−100 mm^3). For pancreatic tumors, mice bearing orthotopic AK4.4 were split into treatment groups, size-matched for tumor volume (˜22 mm^3), 6 days after implantation. […] On the day of the last treatment, mice were slowly (−2 min) injected with 100 μL of 1 mg/mL biotinylated lectin (Vector Labs), administered retro-orbitally 5 min prior to tumor removal. For hypoxia studies, the mice were also injected with 60 mg/kg of 10 mg/mL pimonidazole 1 hr prior to tumor removal. […] For matrix staining, collagen I was detected using the LF-67 antibody provided by Dr. Larry Fisher (National Institute of Dental Research, Bethesda, Md.).
# Histological image analysis: Eight random images (four interior, four periphery) at 20× magnification were taken from each slide using a confocal microscope (Olympus). […] For perfusion, the number of vessels counted by this program with colocalization of lectin and CD31 staining was divided by the number of vessels counted with CD31 staining. For vessel metrics, including diameter and density, the program determined the average size of all counted vessels and their length, as well as the count per area Images of collagen I stained sections were analyzed based on the area fraction of positive staining and on the average staining intensity (concentration) in each image. […] Images of hypoxia staining with pimonidazole were similarly analyzed for the area fraction of positive staining, counting the fraction of pixels above a threshold based on background intensity.
# E0771 tumors = assay: Solid stress (tumor opening technique); parameters: species or system mice; details: mouse, in vivo
# Experimental: Solid stress was assessed using an ex vivo technique involving the measurement of the extent of tumor tissue relaxation (tumor opening relative to tumor diameter) following a stress-releasing incision, with larger openings indicating higher stress.
# When the tumors reached a size of −1 cm in diameter, the mice were anesthetized. Subsequently, each tumor was excised, washed with Hanks' Balanced Salt Solution (HBSS) and its three dimensions were measured. Each tumor was cut along its longest axis, to a depth of 80% of its shortest dimension, using a scalpel. The tumors were allowed to relax for 10 minutes in HBSS to diminish any transient, poro-elastic responses. Afterwards, the opening resulting from the cut was measured at the middle of the cut at the surface of the tumor. Solid stress is proportional to the size of the opening relative to the size of the dimension perpendicular to the cut.
# [3] = agent given alone (losartan 40 mg/kg daily or doxorubicin 2 mg/kg every three days)
smiles,measurement,setting,value
CCOc1nc2cccc(C(=O)O)c2n1Cc1ccc(-c2ccccc2-c2nnn[nH]2)cc1 [candesartan],solid stress,tumors,reduce solid stress to a similar degree
COc1cccc2c1C(=O)c1c(O)c3c(c(O)c1C2=O)C[C@@](O)(C(=O)CO)C[C@@H]3O[C@H]1C[C@H](N)[C@H](O)[C@H](C)O1 [doxorubicin],tumor growth rate,E0771 breast tumors [1]; [3],no significant effect
same,median survival,E0771 breast tumors [1]; doxorubicin alone,16 days
same,tumor growth rate,4T1 breast tumors; [3],no significant effect
same,survival,4T1 breast tumors; monotherapy,improves survival
NCCCC[C@H](N[C@@H](CCc1ccccc1)C(=O)O)C(=O)N1CCC[C@H]1C(=O)O [lisinopril],"matrix production, collagen I area fraction",E0771 breast tumors [2],decreases
same,solid stress,E0771 tumors,reduces solid stress
CCCCC(=O)N(Cc1ccc(-c2ccccc2-c2nnn[nH]2)cc1)[C@H](C(=O)O)C(C)C [valsartan],solid stress,tumors,reduce solid stress to a similar degree
